Laboratory results: patent US10570179B2, “Substituted urea depsipeptide analogs as activators of the CLPP endopeptidase” (priority 2016, dated 2020)
Values after ≈ are worked out from the molar mass of the structure shown. Read-outs that look alike come from different tables or passages of the source. Numbered stars: 1 amine (or outer) side, 2 acyl side, 3 side chain; on linkers, the order of the positions; unused ones are H or OH. Bridge positions count the residues as written; N and C are the ends. Square brackets hold non-standard residues; d marks the D form. Peptide text beside a SMILES is read from it. * marks the point of attachment. Phe(3-Me) = Cc1cccc(C[C@H](N)C(=O)O)c1; Pro(4R-Me) = C[C@H]1CN[C@H](C(=O)O)C1; Hyp = O=C(O)[C@@H]1C[C@@H](O)CN1; NH(3-Cl-phenyl) = Clc1cccc(N*)c1; NH(4-Cl-phenyl) = Clc1ccc(N*)cc1; NH(4-Et-phenyl) = CCc1ccc(N*)cc1; aThr = C[C@H](O)[C@H](N)C(=O)O; Pip = O=C(O)[C@@H]1CCCCN1; CO = O=C([*:1])[*:2]

Tests used:
S. aureus ATCC 29213 = assay: Minimal inhibitory concentration, microbroth dilution; type: cell-based; settings: Staphylococcus aureus
Experimental: (§1) Minimal inhibitory concentrations (“MICs”) were determined using the microbroth dilution method according to Clinical Laboratory Standards Institute (CLSI; National, C.F. C. L. S., Methods for Dilution Antimicrobial Susceptibility Tests for Bacteria Grow aerobically-Seventh Edition: Approved Standard M7-A7, CLSI, Wayne, Pa., USA, 2008) and were read by visual inspection. Two fold serial dilutions of test compound in 100 μL of the appropriate broth media were first prepared in 96-well round bottom microtiter plates (Nalgene Nunc International, Rochester, N.Y., USA). An equivalent volume (100 μL) of bacterial broth inocula containing approximately 10^5 bacterial cfu/mL was added to each well to give final concentrations of test compound starting at 200 μM. The plates were then incubated aerobically at 37° C. All strains were incubated overnight. After incubations, in all cases the MIC was recorded as the lowest concentration of drug that prevented bacterial growth. The bacterial strains for which MIC was determined as described in Table 4.

MRSA NRS70 = assay: as above; type: cell-based; settings: Staphylococcus aureus
Experimental: as §1

E. faecails = assay: as above; type: cell-based; settings: Enterococcus faecalis
Experimental: as §1

S. aureus USA 300 = assay: as above; type: cell-based; settings: Staphylococcus aureus
Experimental: as §1

S. aureus ClpP (Sa-ClpP) = target: T1, S. aureus ClpP (Sa-ClpP) (Staphylococcus aureus, UniProt Q2G036); assay: Casein-BODIPY digestion assay (ClpP activation); type: biochemical
T1 construct: made in house; host or cells: E. coli BL21 (DE3)
Experimental: The compounds were assayed in a casein digestion assay in order to determine their effect on ClpP activation. Briefly, the assay was carried out using S. aureus ClpP (“Sa-ClpP”) overexpressed in E. coli BL21 (DE3) and purified in a two-step process. Purity of the protein was assessed through SDS PAGE analysis. EC50 evaluations were conducted in triplicate in a 20 μl assay format using a method adapted from Maurizi et al. (Methods Enzymol. (1994) 244:314-331). Each well contained 10 μM saClpP, 25 μg/ml BODIPY FL casein (Invitrogen Corporation, San Diego, Calif.), and test compound in concentrations ranging between 0-1000 μM in assay buffer (50 mM Tris pH 8, 200 mM KCl, and 1 mM TCEP). The reaction took place at 37° C. Fluorescence (excitation 485 nm; emission 528 nm) was measured in five minute intervals over a 45 min period using a BioTek HT fluorescence microplate reader (BioTek Instruments, Inc., Winooski, Vt.). Velocity of each reaction was calculated and data was fit to a dose response curve using GraphPad Prism® software (GraphPad Software, Inc., La Jolla, Calif.). EC50 is the effective concentration of compound which causes 50% activation of S. aureus ClpP in the foregoing BODIPY FL casein assay.
Alternatively, the assay was carried out using EnzCheck Protease Assay (Molecular Probes, Catalog # E6638). The assay was performed in black 384 well, flat bottom, low volume plates (Greiner Bio-One, Monroe, N.C., catalog #784076). 10 μL of Tris.HCl buffer, pH 8.0 with 0.01% Triton X-100 was pipetted into each well using a Well-Mate (Thermo Scientific, Waltham, Mass.). 0.4 μL test compounds or controls (2% DMSO v/v) were added to each well using a Biomek FX liquid handling robot (Beckman Coulter, Indianapolis, Ind.). After addition of test compounds and controls, 10 μL of master mix containing 2 μM Sa-ClpP and 2 μM substrate (Bodipy-FL labeled casein) in Tris.HCl buffer, pH 8.0 with 0.01% (v/v) Triton X-100, was pipetted into each well. All assays were performed in triplicate, under linear velocity conditions. Increase in fluorescent signal following activation of Sa-ClpP by test compounds and controls was measured over time period of 30 mins using filters with excitation at 485±15 nm and emission at 520±25 nm on a PHERAstar FS Multilabel reader (BMG, Cary, N.C.). Instrument gains and enzyme linear velocity conditions were determined and validated using ADEP4, a known Sa-ClpP activator. Data analysis was done by measuring rate of casein degradation over time (slopes). Computed degradation rates (slopes) were normalized to positive (ADEP4) or negative (DMSO) controls. Using nonlinear regression curve fitting EC50 values and % activation were determined using the equation “log [agonist] vs. Response-variable slope (four parameters)-symmetrical” in the program Prism 6 (GraphPad Software, La Jolla, Calif. USA, www.graphpad.com).

S. aureus ΔClpP = assay: Minimal inhibitory concentration, microbroth dilution; type: cell-based, Staphylococcus aureus; settings: MIC; ClpP inactivated
Experimental: as §1

[1] = ATCC29213, read-out: Minimal Inhibitory Concentrations (μM) S. aureus ATCC 29213, MIC
[2] = read-out: Minimal Inhibitory Concentrations (μM) MRSA NRS70, MIC
[3] = read-out: Minimal Inhibitory Concentrations (μM) E. faecails, MIC
[4] = USA300, read-out: Minimal Inhibitory Concentrations (μM) S. aureus USA 300, MIC

T1 sequence (Q2G036 whole entry): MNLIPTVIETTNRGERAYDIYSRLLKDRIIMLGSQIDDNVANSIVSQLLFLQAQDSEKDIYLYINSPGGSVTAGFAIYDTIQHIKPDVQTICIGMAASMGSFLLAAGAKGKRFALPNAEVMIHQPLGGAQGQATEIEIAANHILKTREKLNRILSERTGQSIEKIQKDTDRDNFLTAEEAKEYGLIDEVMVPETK

Structure (SMILES)	MIC (S. aureus ATCC 29213; [1]) [µM]	MIC (MRSA NRS70; [2]) [µM]	MIC (E. faecails; [3]) [µM]	MIC (S. aureus USA 300; [4]) [µM]	EC50 (S. aureus ClpP (Sa-ClpP)) [nM]	Minimal Inhibitory Concentrations (μM) S. aureus ΔClpP (S. aureus ΔClpP) [µM]	MIC (S. aureus ATCC 29213; ATCC29213, MIC, read-out: Minimal Inhibitory Concentrations (μM) S. aureus ATCC 29213) [µM]	MIC (MRSA NRS70; MIC, read-out: Minimal Inhibitory Concentrations (μM) MRSA NRS70) [µM]	MIC (E. faecails; MIC, read-out: Minimal Inhibitory Concentrations (μM) E. faecails) [µM]	MIC (S. aureus USA 300; USA300, MIC, read-out: Minimal Inhibitory Concentrations (μM) S. aureus USA 300) [µM]
Cc1cccc(C[C@H](NC(=O)Nc2ccc(Cl)cc2)C(=O)N[C@H]2COC(=O)[C@@H]3CCCN3C(=O)[C@H](C)NC(=O)[C@@H]3CCCCN3C(=O)[C@@H]3C[C@@H](O)CN3C2=O)c1 [Compound 56, (S)-2-(3-(4-CHLOROPHENYL)UREIDO)-N-((6S,8AS,14AS,16R,20S,23AS)-16-HYDROXY-6-METHYL-5,8,14,19,23-PENTAOXOOCTADECAHYDRO-1H,5H,14H,19H-PYRIDO[2,1-I]DIPYRROLO[2,1-C:2′,1′-L][1]OXA[4,7,10,13]TETRAAZACYCLOHEXADECIN-20-YL)-3-(M-TOLYL)PROPANAMIDE]	5 (≈ 3.97 µg/mL)	10 (≈ 7.94 µg/mL)	2.5 (≈ 1.99 µg/mL)	2.5 (≈ 1.99 µg/mL)	1330 ± 2500	>20				
Cc1cccc(C[C@H](NC(=O)Nc2cccc(Cl)c2)C(=O)N[C@H]2COC(=O)[C@@H]3CCCN3C(=O)[C@H](C)NC(=O)[C@@H]3CCCCN3C(=O)[C@@H]3C[C@@H](O)CN3C2=O)c1 [Compound 57, (S)-2-(3-(3-CHLOROPHENYL)UREIDO)-N-((6S,8AS,14AS,16R,20S,23AS)-16-HYDROXY-6-METHYL-5,8,14,19,23-PENTAOXOOCTADECAHYDRO-1H,5H,14H,19H-PYRIDO[2,1-I]DIPYRROLO[2,1-C:2′,1′-L][1]OXA[4,7,10,13]TETRAAZACYCLOHEXADECIN-20-YL)-3-(M-TOLYL)PROPANAMIDE]	20 (≈ 15.9 µg/mL)	10 (≈ 7.94 µg/mL)	10 (≈ 7.94 µg/mL)	10 (≈ 7.94 µg/mL)	1880 ± 2400	>20				
CCc1ccc(NC(=O)N[C@@H](Cc2cccc(C)c2)C(=O)N[C@@H]2C(=O)N3C[C@H](O)C[C@H]3C(=O)N3CCCC[C@H]3C(=O)N[C@@H](C)C(=O)N3CCC[C@H]3C(=O)O[C@H]2C)cc1 [Compound 58, (S)-2-(3-(4-ETHYLPHENYL)UREIDO)-N-((6S,8AS,14AS,16R,20S,21S,23AS)-16-HYDROXY-6,21-DIMETHYL-5,8,14,19,23-PENTAOXOOCTADECAHYDRO-1H,5H,14H,19H-PYRIDO[2,1-I]DIPYRROLO[2,1-C:2′,1′-L][1]OXA[4,7,10,13]TETRAAZACYCLOHEXADECIN-20-YL)-3-(M-TOLYL)PROPANAMIDE] ({NH(4-Et-phenyl)-CO}-[Phe(3-Me)][aThr][Hyp][Pip]AP; ester 2-C)					270 ± 100	>20	2.5 (≈ 2 µg/mL)	0.625 (≈ 0.501 µg/mL)	2.5 (≈ 2 µg/mL)	0.625 (≈ 0.501 µg/mL)
Cc1cccc(C[C@H](NC(=O)Nc2ccc(Cl)cc2)C(=O)N[C@@H]2C(=O)N3C[C@H](O)C[C@H]3C(=O)N3CCCC[C@H]3C(=O)N[C@@H](C)C(=O)N3C[C@H](C)C[C@H]3C(=O)O[C@H]2C)c1 [Compound 61, (S)-2-(3-(4-CHLOROPHENYL)UREIDO)-N-((2R,6S,8AS,14AS,16R,20S,21S,23AS)-16-HYDROXY-2,6,21-TRIMETHYL-5,8,14,19,23-PENTAOXOOCTADECAHYDRO-1H,5H,14H,19H-PYRIDO[2,1-I]DIPYRROLO[2,1-C:2′,1′-L][1]OXA[4,7,10,13]TETRAAZACYCLOHEXADECIN-20-YL)-3-(M-TOLYL)PROPANAMIDE] ({NH(4-Cl-phenyl)-CO}-[Phe(3-Me)][aThr][Hyp][Pip]A[Pro(4R-Me)]; ester 2-C)	0.156 (≈ 0.128 µg/mL)	0.156 (≈ 0.128 µg/mL)	2.5 (≈ 2.06 µg/mL)	0.156 (≈ 0.128 µg/mL)	270 ± 100	>20				
Cc1cccc(C[C@H](NC(=O)Nc2cccc(Cl)c2)C(=O)N[C@@H]2C(=O)N3C[C@H](O)C[C@H]3C(=O)N3CCCC[C@H]3C(=O)N[C@@H](C)C(=O)N3C[C@H](C)C[C@H]3C(=O)O[C@H]2C)c1 [Compound 62, (S)-2-(3-(3-CHLOROPHENYL)UREIDO)-N-((2R,6S,8AS,14AS,16R,20S,21S,23AS)-16-HYDROXY-2,6,21-TRIMETHYL-5,8,14,19,23-PENTAOXOOCTADECAHYDRO-1H,5H,14H,19H-PYRIDO[2,1-I]DIPYRROLO[2,1-C:2′,1′-L][1]OXA[4,7,10,13]TETRAAZACYCLOHEXADECIN-20-YL)-3-(M-TOLYL)PROPANAMIDE] ({NH(3-Cl-phenyl)-CO}-[Phe(3-Me)][aThr][Hyp][Pip]A[Pro(4R-Me)]; ester 2-C)	1.25 (≈ 1.03 µg/mL)	0.625 (≈ 0.514 µg/mL)	2.5 (≈ 2.06 µg/mL)	0.625 (≈ 0.514 µg/mL)	420 ± 100	>20				
Cc1cccc(C[C@H](NC(=O)Nc2ccc(Cl)cc2)C(=O)N[C@@H]2C(=O)N3CCC[C@H]3C(=O)N3CCCC[C@H]3C(=O)N[C@@H](C)C(=O)N3C[C@H](C)C[C@H]3C(=O)O[C@H]2C)c1 [Compound 63, (S)-2-(3-(4-CHLOROPHENYL)UREIDO)-3-(M-TOLYL)-N-((2R,6S,8AS,14AS,20S,21S,23AS)-2,6,21-TRIMETHYL-5,8,14,19,23-PENTAOXOOCTADECAHYDRO-1H,5H,14H,19H-PYRIDO[2,1-I]DIPYRROLO[2,1-C:2′,1′-L][1]OXA[4,7,10,13]TETRAAZACYCLOHEXADECIN-20-YL)PROPANAMIDE] ({NH(4-Cl-phenyl)-CO}-[Phe(3-Me)][aThr]P[Pip]A[Pro(4R-Me)]; ester 2-C)	0.625 (≈ 0.504 µg/mL)	0.313 (≈ 0.252 µg/mL)	0.313 (≈ 0.252 µg/mL)	0.313 (≈ 0.252 µg/mL)	400 ± 200	>20				
Cc1cccc(C[C@H](NC(=O)Nc2cccc(Cl)c2)C(=O)N[C@@H]2C(=O)N3CCC[C@H]3C(=O)N3CCCC[C@H]3C(=O)N[C@@H](C)C(=O)N3C[C@H](C)C[C@H]3C(=O)O[C@H]2C)c1 [Compound 64, (S)-2-(3-(3-CHLOROPHENYL)UREIDO)-3-(M-TOLYL)-N-((2R,6S,8AS,14AS,20S,21S,23AS)-2,6,21-TRIMETHYL-5,8,14,19,23-PENTAOXOOCTADECAHYDRO-1H,5H,14H,19H-PYRIDO[2,1-I]DIPYRROLO[2,1-C:2′,1′-L][1]OXA[4,7,10,13]TETRAAZACYCLOHEXADECIN-20-YL)PROPANAMIDE] ({NH(3-Cl-phenyl)-CO}-[Phe(3-Me)][aThr]P[Pip]A[Pro(4R-Me)]; ester 2-C)	0.625 (≈ 0.504 µg/mL)	0.625 (≈ 0.504 µg/mL)	10 (≈ 8.06 µg/mL)	1.25 (≈ 1.01 µg/mL)	430 ± 200	>20				
